Publication PMC6355318 (Bioorganic & Medicinal Chemistry Letters, 2019)
In brackets after ≈: the same amount, converted by molar mass.

Assays:
[1] = Kinetic solubility; type: physicochemical; conditions: PBS pH 7.4 with 2% DMSO, PBS pH7.4, 98:2 PBS:DMSO, 90 minutes, target 200 μM
[2] = % remaining after 30 mins, mouse liver microsomes, 1 μM
[3] = molecular target: PfPKG (Plasmodium falciparum, UniProt Q8I719); test: biochemical; type: biochemical; conditions: for IC50: recombinant kinase, read-out: PfPKG pIC50 (converted); for LLE: LLE (pIC50 - mLogD)
[4] = test system: P. falciparum; test: blood stage hypoxanthine incorporation (HXI) cell-based assay; conditions: Plasmodium falciparum, read-out: Pf HXI pEC50 (converted)
From the text: [23] For full details on both biochemical assay and anti-malarial hypoxanthine incorporation (cell based) assay procedures, see reference 14.

[5] = passive permeability, 5 hours at room temperature
[6] = Measured logD (shake flask); type: physicochemical; conditions: octanol/PBS
Protocol: LogD measurements were carried out using the shake flask method. […] The ratios of areas of the peaks were used to calculate the LogD in accordance with the equation:
LogD = Log10(Area-TL/Area BL)

PfPKG, sequence (Q8I719 whole entry): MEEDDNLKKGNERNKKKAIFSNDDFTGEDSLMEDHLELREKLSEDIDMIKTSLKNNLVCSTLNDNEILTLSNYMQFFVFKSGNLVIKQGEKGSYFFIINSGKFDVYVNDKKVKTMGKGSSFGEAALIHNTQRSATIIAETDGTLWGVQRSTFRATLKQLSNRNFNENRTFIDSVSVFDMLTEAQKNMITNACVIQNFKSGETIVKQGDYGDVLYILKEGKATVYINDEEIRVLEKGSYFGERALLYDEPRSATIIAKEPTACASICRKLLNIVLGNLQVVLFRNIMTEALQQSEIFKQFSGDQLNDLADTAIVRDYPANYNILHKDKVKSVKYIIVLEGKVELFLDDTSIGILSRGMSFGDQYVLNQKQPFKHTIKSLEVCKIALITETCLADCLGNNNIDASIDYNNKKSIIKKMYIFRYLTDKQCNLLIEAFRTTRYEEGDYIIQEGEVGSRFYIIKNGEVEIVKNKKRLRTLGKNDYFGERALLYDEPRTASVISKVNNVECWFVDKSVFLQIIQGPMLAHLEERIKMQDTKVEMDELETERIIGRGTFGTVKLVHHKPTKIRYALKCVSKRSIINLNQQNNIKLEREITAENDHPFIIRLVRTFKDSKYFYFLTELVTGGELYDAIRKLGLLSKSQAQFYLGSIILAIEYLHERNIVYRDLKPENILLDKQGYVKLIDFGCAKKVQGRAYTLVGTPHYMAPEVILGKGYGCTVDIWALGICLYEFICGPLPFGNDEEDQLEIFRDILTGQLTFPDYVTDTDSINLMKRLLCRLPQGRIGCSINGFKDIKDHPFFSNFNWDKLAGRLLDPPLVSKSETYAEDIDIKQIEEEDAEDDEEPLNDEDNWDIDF

Row | Structure (SMILES) | IC50 [3] [nM] | LLE [3] | fold less biochemically active ([3]; compared to 2) [fold] | solubility kinetic at 1.5 h, 200 µM [1] [µM] | MLM % rem [2] [%] | EC50 [4] [nM] | PAMPA [5] [×10⁻⁶ cm/s] | mLogD [6]
1 | CN1CCC(n2cc(Nc3nccc(-c4c(-c5ccc(F)cc5)nc5ccccn45)n3)cn2)CC1 [Compound 18] | 100 | – | – | 237 (≈ 111 µg/mL) | 37 | 575 | 12.4 | 2.7
2 | CN(C)Cc1ccn2c(-c3cc(N)ncn3)c(-c3ccc(F)cc3)nc2c1 [Compound 5] | 87.1 | 4.7 | – | – | – | – | – | –
3 | CN1CCN(c2ccc(Nc3nccc(-c4c(-c5ccc(F)cc5)nc5ccccn45)n3)cc2)CC1 [Compound 16] | – | – | – | 9 (≈ 4.32 µg/mL) | 65 | 115 | 0 | 4.0
4 | CN(C)Cc1ccn2c(-c3ccnc(N)n3)c(-c3ccc(F)cc3)nc2c1 [Compound 2, reference compound] | 2 | – | – | – | – | 363 | – | –
5 | CN(C)Cc1ccn2c(-c3ccnc(N)n3)c(-c3ccc(F)cc3)nc2n1 [Compound 20] | 81.3 | – | – | – | 67 | 4070 | 11.8 | 2.1
6 | CN(C)Cc1ccn2c(-c3ccncn3)c(-c3ccc(F)cc3)nc2c1 [Compound 7, reference compound] | 12 | 5.9 | – | – | – | – | – | –
7 | CN(C)Cc1ccc2c(-c3ccnc(N)n3)c(-c3ccc(F)cc3)nn2c1 [Compound 29] | 4.07 | – | – | – | 22 | 513 | 18.5 | 2.5
8 | CN(C)Cc1ccn2c(-c3ccncc3)c(-c3ccc(F)cc3)nc2c1 [Compound 8] | 77.6 | 4.2 | ~40 | – | – | – | – | –
9 | CN(C)Cc1cc2nc(-c3ccc(F)cc3)c(-c3ccnc(N)n3)n2cn1 [Compound 19] | 55 | – | – | – | 59 | 3720 | 5.8 | 2.1
10 | CN1CCC(c2ccc(Nc3nccc(-c4c(-c5ccc(F)cc5)nc5ccccn45)n3)cc2)CC1 [Compound 17] | 5.01 | – | – | – | 55 | 158 | 0 | 3.3

The next lines start with results.

Row | IC50 [3] [nM] | LLE [3] | fold less biochemically active ([3]; compared to 2) [fold] | Structure (SMILES) | solubility kinetic at 1.5 h, 200 µM [1] [µM] | MLM % rem [2] [%] | EC50 [4] [nM] | PAMPA [5] [×10⁻⁶ cm/s] | mLogD [6]
11 | 132 | – | – | Fc1ccc(-c2nc3ccccn3c2-c2ccnc(NC3CCOCC3)n2)cc1 [Compound 15] | – | 84 | – | 14.5 | 1.8
12 | 30.9 | – | – | CN(C)Cc1ccc2c(c1)nc(-c1ccc(F)cc1)n2-c1ccnc(N)n1 [Compound 23] | – | 78 | – | 3.2 | 1.2
13 | 52.5 | 5.3 | – | CN(C)Cc1ccn2c(-c3ccnc(N)c3)c(-c3ccc(F)cc3)nc2c1 [Compound 10] | – | – | – | – | –
14 | 407 | – | – | CN(C)CCNc1ccc2nc(-c3ccc(F)cc3)c(-c3ccnc(N)n3)n2n1 [Compound 26] | – | 68 | – | 1 | 1.6
15 | 120 | 5.1 | – | CN(C)Cc1ccn2c(-c3cn[nH]c3)c(-c3ccc(F)cc3)nc2c1 [Compound 9] | – | – | – | – | –
16 | 851 | – | – | CN(C)CCCNc1nccc(-c2c(-c3ccc(F)cc3)nc3ccccn23)n1 [Compound 14] | – | 62 | – | 8.2 | 1.8
17 | 257 | – | – | CN(C)Cc1ccn2c(-c3ccnc(Nc4ccc(N5CCNCC5)cc4)c3)c(-c3ccc(F)cc3)nc2c1 [Compound 11] | – | – | – | – | –
